Laboratory results published in US7605272B2, “IGF-1R inhibitor” (Kyowa Hakko Kirin Co., Ltd., priority 2005, dated 2009).
Counter-ions that a name gives are not always drawn.

Each molecule was assayed against T1, IGF-1R (Homo sapiens, UniProt P08069) (assay: IGF-1R inhibitory activity (kinase reaction, time-resolved fluoroimmunoassay)). Conditions: IGF-1R active recombinant enzyme, test compound 10 μmol/L.
T1 construct: purchased Upstate Co. 14-465
Format: biochemical
Procedure: The IGF-1R inhibitory activity was measured in the following manner.
As IGF-1R, active recombinant enzyme (Catalog No. 14-465) purchased from Upstate Co., was used. To 96 well plate (FIA-PLATE BLACK 96 well FALT-BOTTOM HIGH BINDING, Greiner Bio-one, Catalog No. 655077) coated with NeutroAvidin (Pierce, Catalog No. 31000), biotinylated polyglutamic acid-tyrosine peptide (Nihon Schering K.K., Catalog No. 61GT0BAA) was immobilized and then blocked with 0.25% gelatin to be used as a plate for measuring the kinase reaction. Separately was prepared a solution containing at final concentrations, IGF-1R (200 μg/L), Tris.HCl(pH 7.5)(20 mmol/L), Na3VO4(0.1 mmol/L), MgCl2(1 mmol/L), MnCl2(10 mmol/L), ATP(10 mmol/L), 2-mercaptoethanol (0.04%), BSA(Bovine Serum Albumin) (0.1%), DMSO(0.1%), test compound (10 μmol/L). The solution (each 50 μL) was added to the well of the plate for measuring the kinase reaction and then, enzyme reaction was performed for 30 minutes at 24° C. The plate was washed with TBS-T [10 mmol/L Tris Cl (pH 7.5), 150 mmol/L NaCl, 0.05% Tween 20 (Bio-Rad, Catalog No. 170-6531)] 4 times, then reacted with europium-labeled anti-phosphotyrosine antibody, further washed with TBS-T 4 times and then, measured with time-resolved fluoroimmunoassay (excitation wavelength 340 nm, measuring wavelength 615 nm). The value of a well to which the test compound had not been added was considered as 100% and that of a well where the enzyme and the test compound had not been added was considered as 0%. The relative activity (%) of the well which was added with enzyme and the test compound was measured and by subtracting the calculated value from 100, IGF-1R inhibitory activity of the test compound (%) was determined.

T1 sequence (P08069 959-1367 limits assumed): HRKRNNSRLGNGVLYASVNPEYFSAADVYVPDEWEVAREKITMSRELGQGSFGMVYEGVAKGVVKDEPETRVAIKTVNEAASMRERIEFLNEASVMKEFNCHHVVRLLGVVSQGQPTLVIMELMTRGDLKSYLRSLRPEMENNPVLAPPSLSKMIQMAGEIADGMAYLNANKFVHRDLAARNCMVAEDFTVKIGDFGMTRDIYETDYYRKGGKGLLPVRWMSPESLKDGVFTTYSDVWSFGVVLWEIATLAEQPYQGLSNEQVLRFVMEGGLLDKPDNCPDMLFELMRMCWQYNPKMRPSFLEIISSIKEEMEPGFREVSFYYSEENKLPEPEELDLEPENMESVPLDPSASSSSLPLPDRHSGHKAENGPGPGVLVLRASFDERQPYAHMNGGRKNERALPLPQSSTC

Compound	inhibition at 10 µM [%]	inhibitory activity (%) at 10 μmol/L [%]
Cn1cccc1C(=O)Nc1ccc(N2CCOCC2)cc1/C=C/c1n[nH]c2ccccc12 [Compound 226, (E)-N-{2-[2-(1H-indazol-3-yl)vinyl]-4-(morpholin-4-yl)phenyl}-1-methyl-1H-pyrrole-2-carboxamide hydrochloride]	97.8	–
C(=C\c1n[nH]c2ccccc12)/c1ccccc1Nc1ncccn1 [Compound 163, (E)-N-{2-[2-(1H-indazol-3-yl)vinyl]phenyl}-2-pyrimidylamine]	100	–
O=C(Nc1cc(C(=O)N2CCN(CCCO)CC2)ccc1/C=C/c1n[nH]c2ccccc12)c1ccco1 [Compound 291, (E)-N-{5-[4-(3-hydroxypropyl)piperazin-1-ylcarbonyl]-2-[2-(1H-indazol-3-yl)vinyl]phenyl}furan-2-carboxamide]	97.7	–
O=C1c2cccnc2C(=O)N1c1ccccc1/C=C/c1n[nH]c2ccccc12 [Compound 205, (E)-6-{2-[2-(1H-indazol-3-yl)vinyl]phenyl}pyrrolo[3,4-b]pyridine-5,7-dione]	89.8	–
O=C1c2ccccc2C(=O)N1c1cccc(Cl)c1/C=C/c1n[nH]c2ccccc12 [Compound 154, (E)-2-{3-chloro-2-[2-(1H-indazol-3-yl)vinyl]phenyl}isoindole-1,3-dione]	97.1	–
O=C(Nc1ccccc1/C=C/c1n[nH]c2ccccc12)c1cc2ccccc2[nH]1 [Compound 50, (E)-N-{2-[2-(1H-indazol-3-yl)vinyl]phenyl}-1H-indole-2-carboxamide]	98.5	–
O=C1CCCCN1c1ccccc1/C=C/c1n[nH]c2ccccc12 [Compound 206, (E)-1-{2-[2-(1H-indazol-3-yl)vinyl]phenyl}piperidin-2-one]	101	–
Cc1c(C(=O)Nc2ccccc2/C=C/c2n[nH]c3ccccc23)sc2ccccc12 [Compound 351, (E)-{2-[2-(1H-indazol-3-yl)vinyl]phenyl}-3-methylbenzo[b]thiophene-2-carboxamide]	–	99.1
C(=C\c1n[nH]c2ccccc12)/c1ccccc1-c1nc2ccccc2o1 [Compound 183, (E)-2-{2-[2-(1H-indazol-3-yl)vinyl]phenyl}benzoxazole]	59.1	–
CS(=O)(=O)c1ccc(C(=O)Nc2ccccc2/C=C/c2n[nH]c3ccccc23)cc1 [Compound 215, (E)-N-{2-[2-(1H-indazol-3-yl)vinyl]phenyl}-4-methanesulfonylbenzamide]	81.2	–
CN(C)CCN(C)Cc1ccn(-c2ccccc2/C=C/c2n[nH]c3ccccc23)c1 [Compound 188, (E)-N-(1-{2-[2-(1H-indazol-3-yl)vinyl]phenyl}-1H-pyrrol-3-ylmethyl)-N,N′,N′-trimethylethane-1,2-diamine]	99.4	–
O=C1CNC(=O)N1c1ccccc1/C=C/c1n[nH]c2ccccc12 [Compound 212, (E)-3-{2-[2-(1H-indazol-3-yl)vinyl]phenyl}imidazolidine-2,4-dione]	83.6	–
OCCCc1nc(-c2ccccc2/C=C/c2n[nH]c3ccccc23)no1 [Compound 180, (E)-3-(3-{2-[2-(1H-indazol-3-yl)vinyl]phenyl}[1,2,4]oxadiazol-5-yl)propan-1-ol]	98.1	–
O=C1c2ccsc2C(=O)N1c1ccccc1/C=C/c1n[nH]c2ccccc12 [Compound 209, (E)-5-{2-[2-(1H-indazol-3-yl)vinyl]phenyl}thieno[2,3-c]pyrrole-4,6-dione]	99.5	–
Cc1ccsc1C(=O)Nc1cc(C(=O)N2CC[C@@H](N)C2)ccc1/C=C/c1n[nH]c2ccccc12 [Compound 221, (E)-(R)—N-{2-[2-(1H-indazol-3-yl)vinyl]-5-(3-aminopyrrolidin-1-ylcarbonyl)phenyl}-3-methylthiophene-2-carboxamide hydrochloride]	95.8	–
Nc1cccc2c1CN(c1cc(C(=O)N3CCOCC3)ccc1/C=C/c1n[nH]c3ccccc13)C2=O [Compound 324, (E)-4-amino-2-{2-[2-(1H-indazol-3-yl)vinyl]-5-(morpholin-4-ylcarbonyl)phenyl}-2,3-dihydroisoindole-1-one]	102	–
O=C(Nc1ccccc1/C=C/c1n[nH]c2ccccc12)c1ccc([N+](=O)[O-])s1 [Compound 51, (E)-N-{2-[2-(1H-indazol-3-yl)vinyl]phenyl}-5-nitrothiophene-2-carboxamide]	100	–
CN1CCN(C(=O)c2ccc(/C=C/c3n[nH]c4ccccc34)c(N3C(=O)c4ccccc4C3=O)c2)CC1 [Compound 287]	–	97.1
O=C(Nc1ccccc1/C=C/c1n[nH]c2ccccc12)c1cc2ccccc2o1 [Compound 49, (E)-N-{2-[2-(1H-indazol-3-yl)vinyl]phenyl}benzofuran-2-carboxamide]	103	–
O=C(Nc1nc[nH]n1)c1ccccc1/C=C/c1n[nH]c2ccccc12 [Compound 139, (E)-2-[2-(1H-indazol-3-yl)vinyl]-N-(1H-[1,2,4]triazol-3-yl)benzamide]	93.9	–
O=C1c2ccccc2C(=O)N1c1cc(Cl)ccc1/C=C/c1n[nH]c2ccccc12 [Compound 258, (E)-2-{5-chloro-2-[2-(1H-indazol-3-yl)vinyl]phenyl}isoindole-1,3-dione]	100	–
O=C(Nc1cc(Cl)ccc1/C=C/c1n[nH]c2ccccc12)c1cccs1 [Compound 257, (E)-{5-chloro-2-[2-(1H-indazol-3-yl)vinyl]phenyl}thiophene-2-carboxamide]	–	101.8
Cc1cc(C(=O)Nc2ccccc2/C=C/c2n[nH]c3ccccc23)ccc1[N+](=O)[O-] [Compound 157, (E)-N-{2-[2-(1H-indazol-3-yl)vinyl]phenyl}-3-methyl-4-nitrobenzamide]	96	–
O=C(c1ccc(/C=C/c2n[nH]c3ccccc23)c(N2C(=O)c3ccccc3C2=O)c1)N1CCOCC1 [Compound 276, (E)-N-{2-[2-(1H-indazol-3-yl)vinyl]-5-(morpholin-4-ylcarbonyl)phenyl}isoindole-1,3-dione]	99.6	–
COc1ccccc1/C=C/c1n[nH]c2ccccc12 [Compound 135, (E)-3-[2-(2-methoxyphenyl)vinyl]-1H-indazole]	86.6	–

Same assay, conditions: test compound 10 μmol/L

Compound	inhibitory activity (%) at 10 μmol/L [%]	inhibition at 10 µM [%]
Cc1ccsc1C(=O)Nc1cc(C(=O)N2CCC3(CC2)OCCO3)ccc1/C=C/c1n[nH]c2ccccc12.Cl [Compound 129, (E)-N-{5-(1,4-dioxa-8-azaspiro[4,5]decane-8-carbonyl)-2-[2-(1H-indazol-3-yl)vinyl]phenyl}-3-methylthiophene-2-carboxamide hydrochloride]	99.9	–
COCc1ccc(/C=C/c2n[nH]c3ccccc23)c(NC(=O)c2sccc2C)c1 [Compound 121, (E)-N-{2-[2-(1H-indazol-3-yl)vinyl]-5-(methoxymethyl)phenyl}-3-methylthiophene-2-carboxamide]	–	98.6
Cc1ccsc1C(=O)Nc1cc(C(=O)N(C)C)ccc1/C=C/c1n[nH]c2ccccc12.Cl [Compound 125, (E)-N-{5-(N,N-dimethylcarbamoyl)-2-[2-(1H-indazol-3-yl)vinyl]phenyl}-3-methylthiophene-2-carboxamide hydrochloride]	100.9	–
Cn1cccc1C(=O)Nc1cc(C(=O)N2CCOCC2)ccc1/C=C/c1n[nH]c2ccccc12 [Compound 123, (E)-N-{2-[2-(1H-indazol-3-yl)vinyl]-5-(morpholin-4-ylcarbonyl)phenyl}-1-methylpyrrole-2-carboxamide]	–	95.9
